Experimental data from patent US9120749B2, “Quinoline derivatives and MELK inhibitors containing the same” (ONCOTHERAPY SCIENCE, INC., priority 2010, dated 2015).

Assays:
A549 cells = assay: Cell-based assay: anti-proliferative activity, Cell Counting Kit-8, 72 hours (A549); details: Homo sapiens, A549, 72 h, 72 hours
Protocol: (§1) 100 micro-L of cell suspension was seeded onto 96-well microtiter plate (ViewPlate-96FTC, PerkinElmer). The initial cell concentration of T47D, A549, BT-549, and HT-1197 were 3,000 cells/well, 2,000 cells/well and 2,500 cells/well, respectively. Cellular growth was determined using Cell Counting Kit-8 (DOJINDO) at 72 hours after the exposure of the candidate inhibitors. […] Accurate IC50 values were calculated as described previously.

HT-1197 cells = assay: Cell-based assay: anti-proliferative activity, Cell Counting Kit-8, 72 hours (HT-1197, negative control without MELK expression); details: Homo sapiens, HT1197, 72 h, HT1197 cells (negative control, no MELK expression), 72 hours
Protocol: (§2) To evaluate the expression status of MELK in several cell lines, western blot analysis was performed using crude cell lysate collected from those cells. Anti-MELK antibody (clone 31, BD Biosciences) was used to visualize the expression.
as §1, with “Active candidate inhibitors against MELK were evaluated for their target-specific cytotoxicity using T47D, A549, BT-549, and HT-1197 cells was used for negative control. 100” for “100”

MELK = MELK (Homo sapiens, UniProt Q14680); assay: Kinase assay: MELK activity, phosphorylation of FITC-labeled histone H3 peptide measured by IMAP fluorescence polarization; format: biochemical; details: 50 micro-M ATP, FITC-labeled histone H3 peptide substrate, IMAP fluorescence polarization; read-out: IC50 (μM) (kinase assay)
Sequence of MELK (Q14680 whole entry, looked up): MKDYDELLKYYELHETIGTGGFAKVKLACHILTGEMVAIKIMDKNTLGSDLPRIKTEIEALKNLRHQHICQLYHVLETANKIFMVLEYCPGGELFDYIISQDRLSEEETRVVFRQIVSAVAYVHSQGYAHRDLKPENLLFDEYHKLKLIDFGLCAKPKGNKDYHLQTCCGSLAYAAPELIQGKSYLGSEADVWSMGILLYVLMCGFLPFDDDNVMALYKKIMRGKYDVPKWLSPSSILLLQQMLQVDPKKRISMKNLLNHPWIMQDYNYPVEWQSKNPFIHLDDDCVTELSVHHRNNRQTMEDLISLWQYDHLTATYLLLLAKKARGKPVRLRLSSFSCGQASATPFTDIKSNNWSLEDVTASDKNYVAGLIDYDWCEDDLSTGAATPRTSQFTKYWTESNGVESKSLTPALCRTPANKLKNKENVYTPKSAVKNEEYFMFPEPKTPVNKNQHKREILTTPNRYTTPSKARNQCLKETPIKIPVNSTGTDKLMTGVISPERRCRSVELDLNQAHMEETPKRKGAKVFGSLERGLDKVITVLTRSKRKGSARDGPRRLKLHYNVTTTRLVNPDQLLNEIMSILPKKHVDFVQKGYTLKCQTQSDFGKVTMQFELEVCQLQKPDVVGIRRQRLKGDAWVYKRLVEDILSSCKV
In short: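 Compounds, serially diluted from 12.5 mM DMSO stocks to 1% final DMSO, were tested with FITC-labeled histone H3 peptide as substrate. The reaction was stopped with progressive binding solution. Fluorescence polarization was read after 0.5 hour at room temperature.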

T47D cells = assay: Cell-based assay: anti-proliferative activity, Cell Counting Kit-8, 72 hours (T47D); details: Homo sapiens, T47D, 72 h
Protocol: as §2
as §1, with “Active candidate inhibitors against MELK were evaluated for their target-specific cytotoxicity using T47D, A549, BT-549, and HT-1197 cells was used for negative control. 100” for “100”

SMILES | IC50 (A549 cells) | IC50 (HT-1197 cells) | IC50 (MELK) | IC50 (T47D cells)
COc1cc(-c2ccc3ncc(C(=O)C4CC4)c(Nc4ccc(CN(C)C)cn4)c3c2)cc(Cl)c1O [Example 429, (6-(3-chloro-4-hydroxy-5-methoxyphenyl)-4-(5-((dimethylamino)methyl)pyridin-2-ylamino)quinolin-3-yl)(cyclopropyl)methanone] | 5.1 µM | 19 µM | 0.019 µM | 3.8 µM
CN1CCN(c2ccc(-c3c(C(=O)C4CC4)cnc4ccc(-c5cc(Cl)c(O)c(Cl)c5)cc34)cc2)CC1 [Example 430, cyclopropyl(6-(3,5-dichloro-4-hydroxyphenyl)-4-(4-(4-methylpiperazin-1-yl)phenyl)quinolin-3-yl)methanone] | 2.7 µM | 9.2 µM | 0.033 µM | 1.3 µM
CN(C)Cc1ccc(-c2c(C(=O)C3CC3)cnc3ccc(-c4cc(Cl)c(O)c(Cl)c4)cc23)cc1 [Example 431, cyclopropyl(6-(3,5-dichloro-4-hydroxyphenyl)-4-(4-((dimethylamino)methyl)phenyl)quinolin-3-yl)methanone] | 0.59 µM | 7.5 µM | 0.0039 µM | 0.97 µM
CN(C)Cc1ccc(Nc2c(C#N)cnc3ccc(-c4cc(F)c(O)c(Cl)c4)cc23)cc1 [Example 432, 6-(3-chloro-5-fluoro-4-hydroxyphenyl)-4-(4-((dimethylamino)methyl)phenylamino)quinoline-3-carbonitrile] | 1.1 µM | 4.9 µM | 0.056 µM | 0.98 µM
N#Cc1cnc2ccc(-c3ccc(O)c(Cl)c3)cc2c1N1CCC(CN2CCCC2)CC1 [Example 433, 6-(3-chloro-4-hydroxyphenyl)-4-(4-(pyrrolidin-1-ylmethyl)piperidin-1-yl)quinoline-3-carbonitrile] | 0.7 µM | 3.7 µM | 0.043 µM | 0.54 µM
N#Cc1cnc2ccc(-c3cc(F)c(O)c(Cl)c3)cc2c1N1CCC(CN2CCCC2)CC1 [Example 434, 6-(3-chloro-5-fluoro-4-hydroxyphenyl)-4-(4-(pyrrolidin-1-ylmethyl)piperidin-1-yl)quinoline-3-carbonitrile] | 1.1 µM | 10 µM | 0.035 µM | 0.45 µM
CN(C)Cc1ccc(Nc2c(C(=O)C3CC3)cnc3ccc(-c4cc(F)c(O)c(Cl)c4)cc23)nc1 [Example 435, (6-(3-chloro-5-fluoro-4-hydroxyphenyl)-4-(5-((dimethylamino)methyl)pyridin-2-ylamino)quinolin-3-yl)(cyclopropyl)methanone] | 2.8 µM | 12 µM | 0.049 µM | 2.7 µM
COc1cc(-c2ccc3ncc(C(=O)C4CC4)c(-c4ccc(CN5CCCC5)cc4)c3c2)cc(Cl)c1O [Example 436, (6-(3-chloro-4-hydroxy-5-methoxyphenyl)-4-(4-(pyrrolidin-1-ylmethyl)phenyl)quinolin-3-yl)(cyclopropyl)methanone] | 0.63 µM | 4.9 µM | 0.014 µM | 0.63 µM
CN(C)Cc1ccc(Nc2c(C(=O)C3CC3)cnc3ccc(-c4cnc(C#N)nc4)cc23)nc1 [Example 439, 5-(3-(cyclopropanecarbonyl)-4-(5-((dimethylamino)methyl)pyridin-2-ylamino)quinolin-6-yl)pyrimidine-2-carbonitrile] | 4 µM | 3.6 µM | 0.058 µM | 0.61 µM
O=C(c1cnc2ccc(-c3cc(F)c(O)c(Cl)c3)cc2c1N1CCN(CCN2CCCC2)C(=O)C1)C1CC1 [Example 440, 4-(6-(3-chloro-5-fluoro-4-hydroxyphenyl)-3-(cyclopropanecarbonyl)quinolin-4-yl)-1-(2-(pyrrolidin-1-yl)ethyl)piperazin-2-one] | 5.1 µM | 10 µM | 0.0044 µM | 1.1 µM
CN(C)CC(=O)N1CCN(c2c(C(=O)C3CC3)cnc3ccc(-c4ccc(O)c(Cl)c4)cc23)CC1 [Example 441, 1-(4-(6-(3-chloro-4-hydroxyphenyl)-3-(cyclopropanecarbonyl)quinolin-4-yl)piperazin-1-yl)-2-(dimethylamino)ethanone] | 0.54 µM | 46 µM | 0.004 µM | 0.63 µM
CN(C)CC(=O)N1CCN(c2c(C(=O)C3CC3)cnc3ccc(-c4cc(F)c(O)c(Cl)c4)cc23)CC1 [Example 442, 1-(4-(6-(3-chloro-5-fluoro-4-hydroxyphenyl)-3-(cyclopropanecarbonyl)quinolin-4-yl)piperazin-1-yl)-2-(dimethylamino)ethanone] | 1.5 µM | 5.5 µM | 0.0035 µM | 0.74 µM
CN1CCCC1c1ccc(Nc2c(C(=O)C3CC3)cnc3ccc(-c4cc(F)c(O)c(Cl)c4)cc23)nc1 (centres unmarked) [Example 443] | 6.6 µM | 10 µM | 0.043 µM | 7.1 µM
CN1CCCC1c1ccc(Nc2c(C(=O)C3CC3)cnc3ccc(-c4cc(Cl)c(O)c(Cl)c4)cc23)nc1 (centres unmarked) [Example 445] | 4.1 µM | 10 µM | 0.022 µM | 7.5 µM
